Data on 38 compounds can be found in US10584115B2, “Substituted pyridine and pyrazine BMI-1 inhibitors” (PTC Therapeutics, Inc., priority 2013, dated 2020).

Where a name gives a salt, the structure may show the parent alone.

The test system of the test is Bmi-1 protein. Briefly: Sandwich ELISA Assay (Bmi-1 protein level in HT-1080 cells after compound treatment). In kind it is cell-based. The conditions noted are these: Table 1, Bmi-1 sandwich ELISA, read-out: ELISA EC50 value for Bmi-1 protein. Put shortly:
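HT-1080 cells exposed to compounds for 40–48 h at 37 °C (0.5% DMSO final), then lysed. Bmi-1 in lysates measured by sandwich ELISA (mouse monoclonal capture, rabbit anti-Bmi-1 detection, HRP anti-rabbit, TMB), read at OD450 with OD570 reference against a recombinant Bmi-1 standard curve (0–8000 pg/mL).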
In general terms: ELISA stands for enzyme-linked immunosorbent assay.
For the compound `COc1ccc2nc(C(F)(F)F)c(-c3cccc(Nc4ccc(OC=O)cc4)n3)n2c1` [compound 112, 4-({6-[6-methoxy-2-(trifluoromethyl)imidazo[1,2-a]pyridin-3-yl]pyridin-2-yl}amino)phenyl formate], the EC50 (as a rule, the concentration needed to bring the measured effect to its halfway point) lay in the range of 100 to 3000 nM. With `COc1ccc2nc(C(F)(F)F)c(-c3cccc(Nc4ccc(O)cc4)n3)n2c1` [compound 113, 4-({6-[6-methoxy-2-(trifluoromethyl)imidazo[1,2-a]pyridin-3-yl]pyridin-2-yl}amino)phenol] the figure was 100 to 3000 nM. With `FC(F)(F)c1ccc(Nc2cncc(-c3c(C(F)(F)F)nc4sccn34)n2)cc1` [compound 118, 6-[6-(trifluoromethyl)imidazo[2,1-b][1,3]thiazol-5-yl]-N-[4-(trifluoromethyl)phenyl]pyrazin-2-amine] the figure was 1 to 10 nM; with `COc1ccc(Nc2cncc(-c3c(C(F)(F)F)nc4sccn34)n2)cc1` [compound 119, N-(4-methoxyphenyl)-6-[6-(trifluoromethyl)imidazo[2,1-b][1,3]thiazol-5-yl]pyrazin-2-amine], < 1 nM; with `FC(F)(F)Oc1ccc(Nc2cncc(-c3c(C(F)(F)F)nc4sccn34)n2)cc1` [compound 120, N-[4-(trifluoromethoxy)phenyl]-6-[6-(trifluoromethyl)imidazo[2,1-b][1,3]thiazol-5-yl]pyrazin-2-amine], 10 to 100 nM. Consider `FC(F)Oc1ccc(Nc2cncc(-c3c(C(F)(F)F)nc4sccn34)n2)cc1` [compound 121, N-[4-(difluoromethoxy)phenyl]-6-[6-(trifluoromethyl)imidazo[2,1-b][1,3]thiazol-5-yl]pyrazin-2-amine], for which the EC50 lay within 1 to 10 nM. Turning to `FC(F)(F)c1nc2sccn2c1-c1cncc(Nc2ccccc2)n1` [compound 122, N-phenyl-6-[6-(trifluoromethyl)imidazo[2,1-b][1,3]thiazol-5-yl]pyrazin-2-amine], the EC50 is 100 to 3000 nM. With `FC(F)(F)c1ccc(Nc2cncc(-n3c(C(F)(F)F)nc4ncccc43)n2)cc1` [compound 123, 6-[2-(trifluoromethyl)-1H-imidazo[4,5-b]pyridin-1-yl]-N-[4-(trifluoromethyl)phenyl]pyrazin-2-amine] the figure was 100 to 3000 nM. To `CCc1nc(C)c(-c2cncc(Nc3ccc(C(F)(F)F)cc3)n2)n1Cc1ccccc1` [compound 126] belongs 100 to 3000 nM; to `COC(=O)c1ccc(Nc2cncc(-n3c(C)nc4ccccc43)n2)cc1` [compound 133, methyl 4-{[6-(2-methyl-1H-benzimidazol-1-yl)pyrazin-2-yl]amino}benzoate], 10 to 100 nM. With `FC(F)(F)c1ccc(Nc2cncc(-n3c(Cl)nc4ccccc43)n2)cc1` [compound 134, 6-(2-chloro-1H-benzimidazol-1-yl)-N-[4-(trifluoromethyl)phenyl]pyrazin-2-amine] the figure was 100 to 3000 nM. As to `FC(F)(F)c1ccc(Nc2cccc(-n3c(C(F)(F)F)nc4ncccc43)n2)cc1` [compound 137, 6-[2-(trifluoromethyl)-1H-imidazo[4,5-b]pyridin-1-yl]-N-[4-(trifluoromethyl)phenyl]pyridin-2-amine], the EC50 lay within 100 to 3000 nM.

`CCNc1nc2ccccc2n1-c1cncc(Nc2ccc(C(F)(F)F)cc2)n1` [compound 138, N-ethyl-1-(6-{[4-(trifluoromethyl)phenyl]amino}pyrazin-2-yl)-1H-benzimidazol-2-amine]: the concentration giving a half-maximal response (EC50) was 10 to 100 nM.

In the case of `Cc1nc2ncccc2n1-c1cccc(Nc2ccc(C(F)(F)F)cc2)n1` [compound 139, 6-(2-methyl-1H-imidazo[4,5-b]pyridin-1-yl)-N-[4-(trifluoromethyl)phenyl]pyridin-2-amine], the EC50 lay within 10 to 100 nM. For `CCc1nc2ncccc2n1-c1cccc(Nc2ccc(C(F)(F)F)cc2)n1` [compound 140, 6-(2-ethyl-1H-imidazo[4,5-b]pyridin-1-yl)-N-[4-(trifluoromethyl)phenyl]pyridin-2-amine], the EC50 fell in the range of 10 to 100 nM.

As to `FC(F)(F)Oc1ccc(Nc2cncc(-c3c(C(F)(F)F)nc4cnccn34)n2)cc1` [compound 141, N-[4-(trifluoromethoxy)phenyl]-6-[2-(trifluoromethyl)imidazo[1,2-a]pyrazin-3-yl]pyrazin-2-amine], the EC50 fell in the range of 100 to 3000 nM.

For the compound `FC(F)Oc1ccc(Nc2cncc(-c3c(C(F)(F)F)nc4cnccn34)n2)cc1` [compound 142, N-[4-(difluoromethoxy)phenyl]-6-[2-(trifluoromethyl)imidazo[1,2-a]pyrazin-3-yl]pyrazin-2-amine], the EC50 fell in the range of 10 to 100 nM. As to `Cc1nn(C)c(C)c1-c1cncc(Nc2ccc(OC(F)F)cc2)n1` [compound 143, N-[4-(difluoromethoxy)phenyl]-6-(1,3,5-trimethyl-1H-pyrazol-4-yl)pyrazin-2-amine], the EC50 was < 1 nM. To `Cc1nn(C)c(C)c1-c1cccc(Nc2ccc(OC(F)(F)F)cc2)n1` [compound 144, N-[4-(trifluoromethoxy)phenyl]-6-(1,3,5-trimethyl-1H-pyrazol-4-yl)pyridin-2-amine] belongs 100 to 3000 nM; to `CC(O)c1nc2ccccc2n1-c1cncc(Nc2ccc(C(F)(F)F)cc2)n1` (centres unmarked) [compound 150, 1-[1-(6-{[4-(trifluoromethyl)phenyl]amino}pyrazin-2-yl)-1H-benzimidazol-2-yl]ethanol], 10 to 100 nM; to `OCc1nc2ccccn2c1-c1cncc(Nc2ccc(C(F)(F)F)cc2)n1` [compound 151, [3-(6-{[4-(trifluoromethyl)phenyl]amino}pyrazin-2-yl)imidazo[1,2-a]pyridin-2-yl]methanol], 1 to 10 nM.

In the case of `Cc1nc2ccccc2n1-c1cncc(Nc2ccc(CO)cc2)n1` [compound 152, (4-{[6-(2-methyl-1H-benzimidazol-1-yl)pyrazin-2-yl]amino}phenyl)methanol], the EC50 lay within 10 to 100 nM. With `CC(=O)c1ccc(Nc2cncc(-n3c(C)nc4ccccc43)n2)cc1` [compound 153, 1-(4-{[6-(2-methyl-1H-benzimidazol-1-yl)pyrazin-2-yl]amino}phenyl)ethanone] the figure was 1 to 10 nM; with `Cc1nc2ccccc2n1-c1cncc(Nc2ccc(C(C)O)cc2)n1` (centres unmarked) [compound 155, 1-(4-{[6-(2-methyl-1H-benzimidazol-1-yl)pyrazin-2-yl]amino}phenyl)ethanol], 10 to 100 nM.

As to `C/C(=N\O)c1ccc(Nc2cncc(-n3c(C)nc4ccccc43)n2)cc1` [compound 156, N-{4-[(1E)-N-hydroxyethanimidoyl]phenyl}-6-(2-methyl-1H-benzimidazol-1-yl)pyrazin-2-amine], the EC50 is 1 to 10 nM. Consider `N#Cc1nc2ccccc2n1-c1cncc(Nc2ccc(C(F)(F)F)cc2)n1` [compound 157, 1-(6-{[4-(trifluoromethyl)phenyl]amino}pyrazin-2-yl)-1H-benzimidazole-2-carbonitrile], for which the EC50 was in the range of 100 to 3000 nM. To `O=[N+]([O-])c1cc(Nc2ccc(C(F)(F)F)cc2)nc(-c2c(C(F)(F)F)nc3ccccn23)c1` [compound 158, 4-nitro-6-[2-(trifluoromethyl)imidazo[1,2-a]pyridin-3-yl]-N-[4-(trifluoromethyl)phenyl]pyridin-2-amine] belongs 10 to 100 nM.

With `Nc1cc(Nc2ccc(C(F)(F)F)cc2)nc(-c2c(C(F)(F)F)nc3ccccn23)c1` [compound 159, 6-[2-(trifluoromethyl)imidazo[1,2-a]pyridin-3-yl]-N^2-[4-(trifluoromethyl)phenyl]pyridine-2,4-diamine], the EC50 was in the range of 1 to 10 nM. For the compound `OCCNc1cc(Nc2ccc(C(F)(F)F)cc2)nc(-c2c(C(F)(F)F)nc3ccccn23)c1` [compound 160, 2-[(2-[2-(trifluoromethyl)imidazo[1,2-a]pyridin-3-yl]-6-{[4-(trifluoromethyl)phenyl]amino}pyridin-4-yl)amino]ethanol], the EC50 was in the range of 10 to 100 nM. With `COCCNc1cc(Nc2ccc(C(F)(F)F)cc2)nc(-c2c(C(F)(F)F)nc3ccccn23)c1` [compound 161, N^4-(2-methoxyethyl)-6-[2-(trifluoromethyl)imidazo[1,2-a]pyridin-3-yl]-N^2-[4-(trifluoromethyl)phenyl]pyridine-2,4-diamine] the figure was 10 to 100 nM. To `Cc1cc2ccccc2n1-c1cncc(Nc2ccc(C(F)(F)F)cc2)n1` [compound 162] belongs 100 to 3000 nM; to `Cc1cc2ccccc2n1-c1cncc(Nc2ccc(OC(F)F)cc2)n1` [compound 163, N-[4-(difluoromethoxy)phenyl]-6-(2-methyl-1H-indol-1-yl)pyrazin-2-amine], 100 to 3000 nM. With `COc1ccc(Nc2cncc(-n3c(C)cc4ccccc43)n2)cc1` [compound 164, N-(4-methoxyphenyl)-6-(2-methyl-1H-indol-1-yl)pyrazin-2-amine] the figure was 10 to 100 nM; with `Cc1nc2cnccc2n1-c1cncc(Nc2ccc(C(F)(F)F)cc2)n1` [compound 166, 6-(2-methyl-1H-imidazo[4,5-c]pyridin-1-yl)-N-[4-(trifluoromethyl)phenyl]pyrazin-2-amine], 100 to 3000 nM; with `CSc1nc2ccccc2n1-c1cncc(Nc2ccc(OC(F)(F)F)cc2)n1` [compound 167, 6-[2-(methylsulfanyl)-1H-benzimidazol-1-yl]-N-[4-(trifluoromethoxy)phenyl]pyrazin-2-amine], 100 to 3000 nM.

Take `Cc1ccc(Nc2cncc(-c3c(C(F)(F)F)nc4cnccn34)n2)cc1` [compound 168, N-(4-methylphenyl)-6-[2-(trifluoromethyl)imidazo[1,2-a]pyrazin-3-yl]pyrazin-2-amine]: the EC50 was 10 to 100 nM. To `O=[N+]([O-])c1cc(Nc2ccc(OC(F)F)cc2)nc(-c2c(C(F)(F)F)nc3ccccn23)c1` [compound 169, N-[4-(difluoromethoxy)phenyl]-4-nitro-6-[2-(trifluoromethyl)imidazo[1,2-a]pyridin-3-yl]pyridin-2-amine] belongs 10 to 100 nM; to `Nc1cc(Nc2ccc(OC(F)F)cc2)nc(-c2c(C(F)(F)F)nc3ccccn23)c1` [compound 170, N^2-[4-(difluoromethoxy)phenyl]-6-[2-(trifluoromethyl)imidazo[1,2-a]pyridin-3-yl]pyridine-2,4-diamine], 100 to 3000 nM.
